Data taken from US20130034522A1, “THERAPIES FOR TREATING HEPATITIS C VIRUS INFECTION” (priority 2010, published 2013).
Like-named read-outs stand apart in the source and are kept apart here.

Assays:
genotype 1 HCV = assay: Study VX-222-102 Part A: plasma HCV RNA reduction; format: in vivo, Hepatitis C virus
Experimental: (§1) In Part A of Study 102 subjects were randomized to VX-222 or placebo in a 6:2 (VX-222: placebo) allocation ratio to either Cohort 1, Cohort 2, Cohort 3, or Cohort 4. Subjects enrolled in Cohort 1, Cohort 2, and Cohort 3 were administered 250 mg, 500 mf, or 750 mg VX-222 or placebo twice daily (b.i.d.) for 3 days, respectively. Subjects enrolled in Cohort 4 were administered 1,500 mg VX-222 or placebo once daily (qd) for 3 days. Standard of care treatment, Peg-IFN-alpha-2a and RBV was offered to the subjects at the end of dosing in Part A for up to 48 weeks, if judged appropriate by the physician.
(§2) Additional results of Study VX-222-102 are described in FIGS. 2-8: Thirty-two treatment-naïve patients with chronic genotype 1 HCV infection were enrolled in the trial, including six patients in each dose group who received 250 mg of VX-222 BID, 500 mg of VX-222 BID, 750 mg of VX-222 BID, and 1,500 mg of VX-222 QD. Two patients received placebo in each of the four dosing groups, for a total of eight patients who received placebo. Part A of the trial was conducted at 10 centers in the United States, Canada and Argentina. Of the patients enrolled in the trial, 24 patients had genotype 1a HCV infection and eight patients had genotype 1b HCV infection. Six of the patients enrolled in the trial were African American, 25 were Caucasian and one was American Indian/Alaskan.
(§3) Multicenter, randomized, double-blinded, placebo-controlled, dose-ranging study • HCV genotype 1-infected patients • With no evidence of cirrhosis • ALT values <5×ULM • Plasma HCV RNA of >5 log10 IU/mL at screening • 4-arm comparative study (6:2 randomization VX-222: placebo) • Enrollment in this dosing—ranging study was sequential • 250 mg BID for 3 days • 500 mg BID for 3 days • 750 mg BID for 3 days • 1500 mg QD for 3 days.

[1] = Study VX-222-002: combination treatment with VX-222 and VX-950 in healthy subjects (PK, safety); conditions: for AUC(0-t) / Cmax / half-life: human, plasma, oral; for AUC(0-t) / Cmax: geometric mean (CV %)
[2] = Study VX-222-102 Part A: VX-222 for 3 days in HCV infected subjects (PK, safety); format: in vivo, human; conditions: for AUC(0-t) / concentration at 12 h / Cmax / Tmax / half-life: human, in vivo; for AUC(0-t): read-out: AUC0-12 hr Geometric Mean; for concentration at 12 h: read-out: C12 Geometric Mean; for Cmax: read-out: Cmax Geometric Mean; for half-life: read-out: T1/2 Arithmetic Mean (converted)
Experimental: as §1, §2, §3

[3] = test system: genotype 1 chronic hepatitis C infection; assay: Study 101 Part C: pharmacodynamics of VX-222 (HCV plasma RNA); format: in vivo, Hepatitis C virus; conditions: 750 mg b.i.d. for 3 consecutive days, treatment-naïve genotype 1 subjects
Experimental: In Part C of Study 101, VX-222 was administered as multiple doses of 750 mg b.i.d. to treatment-naïve subjects with chronic hepatitis C for 3 days. In addition, in Part A of Study 102, VX-222 was administered as multiple doses ranging from 250 mg to 750 mg BID and 1500 mg once a day to treatment-naïve subjects with chronic hepatitis C for 3 days. A primary objective of Part C of Study 101 was to assess the pharmacodynamics of VX-222 in treatment-naïve subjects with genotype 1 chronic hepatitis C infection. The final pharmacodynamic parameters of VX-222 administered at 750 mg b.i.d. for 3 consecutive days are outlined below: • The mean untransformed baseline (Day 1) HCV plasma RNA level was 4962600 IU/mL (log10=6.4927). • The mean maximum reduction from baseline calculated using the log10 predose HCV plasma RNA on Days 2 to 4 was −3.6784. The correlation between the predose RNA levels and the amplitude of the reduction in log 10 HCV RNA was relatively weak.

[4] = VX-222 400 mg BID with VX-950 1125 mg BID, Day 37, healthy subjects, fed
[5] = all four dose groups, blinded pooled data placebo or VX-222
[6] = 250 mg, 250 mg b.i.d., Day 1, HCV infected subjects
[7] = 250 mg, 250 mg b.i.d., Day 3, HCV infected subjects
[8] = 500 mg, 500 mg b.i.d., Day 1, HCV infected subjects
[9] = 500 mg, 500 mg b.i.d., Day 3, HCV infected subjects
[10] = 750 mg, 750 mg b.i.d., Day 1, HCV infected subjects
[11] = 750 mg, 750 mg b.i.d., Day 3, HCV infected subjects

Compound: CC1CCC(C(=O)N(c2cc(C#CC(C)(C)C)sc2C(=O)O)C2CCC(O)CC2)CC1 (stereo not drawn) [VX-222, 5-(3,3-Dimethylbut-1-ynyl)-3-[(trans-4-hydroxycyclohexyl)-(4-trans methylcyclohexanecarbonyl)amino]thiophene-2-carboxylic acid]
- in vitro IC90 (in vitro IC90 of VX-222): 0.319 µg/mL
- mean HCV RNA decline after three days of dosing (genotype 1 HCV; 250 mg BID): 3.1 log10
- Mean Viral Load Reduction at Day 4 (genotype 1 HCV; 250 mg b.i.d. for 3 days): −3.1
- mean HCV RNA decline after three days of dosing (genotype 1 HCV; 500 mg BID): 3.4 log10
- Mean Viral Load Reduction at Day 4 (genotype 1 HCV; 500 mg b.i.d. for 3 days): −3.4
- mean HCV RNA decline after three days of dosing (genotype 1 HCV; 750 mg BID): 3.2 log10
- Mean Viral Load Reduction at Day 4 (genotype 1 HCV; 750 mg b.i.d. for 3 days): −3.2
- mean HCV RNA decline after three days of dosing (genotype 1 HCV; 1,500 mg QD): 3.4 log10
- Mean Viral Load Reduction at Day 4 (genotype 1 HCV; 1,500 mg QD for 3 days): −3.4
- mean log HCV RNA decrease on Day 4 (genotype 1 HCV; Cohort 1, 250 mg b.i.d.): 3.1 log
- mean log HCV RNA decrease on Day 4 (genotype 1 HCV; Cohort 2, 500 mg b.i.d.): 3.4 log
- mean log HCV RNA decrease on Day 4 (genotype 1 HCV; Cohort 3, 750 mg b.i.d.): 3.2 log
- mean log HCV RNA decrease on Day 4 (genotype 1 HCV; Cohort 4, 1,500 mg once a day): 3.6 log
- mean reductions in plasma HCV RNA (genotype 1 HCV; across the four VX-222 dose groups): greater than 3 log10
- Tmax [1, 4]: 4 [4,6] hr
- VX-222 plasma exposures ([1]; co-administered with VX-950, healthy subjects): increased
- VX-222 administered with VX-950 versus VX-222 alone ([1]; healthy subjects): 2 fold
- AUC(0-t) ([1]; 400 mg, AUC0-12, VX-222 400 mg BID alone, Day 10, healthy subjects, fed): 8560 ng·h/mL
- Cmax ([1]; 400 mg, VX-222 400 mg BID alone, Day 10, healthy subjects, fed): 1770 ng/mL
- half-life ([1]; 400 mg, T1/2, VX-222 400 mg BID alone, Day 10, healthy subjects, fed): 2.7 h
- AUC(0-t) ([1]; 1000 mg, AUC0-12, VX-222 1000 mg BID alone, Day 10, healthy subjects, fed): 25800 ng·h/mL
- Cmax ([1]; 1000 mg, VX-222 1000 mg BID alone, Day 10, healthy subjects, fed): 4120 ng/mL
- half-life ([1]; 1000 mg, T1/2, VX-222 1000 mg BID alone, Day 10, healthy subjects, fed): 4 h
- AUC(0-t) ([1]; AUC0-12, VX-222 400 mg BID with VX-950 1125 mg BID, Day 37, healthy subjects, fed): 29500 ng·h/mL
- AUC(0-t) ([1]; AUC0-12, VX-222 1000 mg BID with VX-950 1125 mg BID, Day 37, healthy subjects, fed): 59900 ng·h/mL
- Cmax [1, 4]: 3950 ng/mL
- Cmax ([1]; VX-222 1000 mg BID with VX-950 1125 mg BID, Day 37, healthy subjects, fed): 8150 ng/mL
- half-life ([1]; T1/2, VX-222 400 mg BID with VX-950 1125 mg BID, Day 37, healthy subjects, fed): 5.4 h
- half-life ([1]; T1/2, VX-222 1000 mg BID with VX-950 1125 mg BID, Day 37, healthy subjects, fed): 3.5 h
- severe or serious events ([2]; 250, 500 or 750 mg b.i.d. for 3 days, genotype 1 chronic hepatitis C subjects): no reported severe or serious events
- VX-222 exposures versus dose ([2]; 250-750 mg BID and 1500 mg QD, FIG. 7): increased with doses in an approximately proportional manner
- severe or serious adverse events [2, 5]: no severe or serious adverse events were reported
- tolerability [2, 5]: well-tolerated
- AUC(0-t) [2, 6]: 11700 ng·h/mL
- concentration at 12 h [2, 6]: 858 ng/mL
- Cmax [2, 6]: 1810 ng/mL
- Tmax ([2]; 250 mg, 250 mg b.i.d., Day 1, HCV infected subjects, read-out: tmax Median): 6 h
- AUC(0-t) [2, 7]: 19500 ng·h/mL
- concentration at 12 h [2, 7]: 728 ng/mL
- Cmax [2, 7]: 2960 ng/mL
- Tmax ([2]; 250 mg, 250 mg b.i.d., Day 3, HCV infected subjects, read-out: tmax Median): 4 h
- AUC(0-t) [2, 8]: 22900 ng·h/mL
- concentration at 12 h [2, 8]: 767 ng/mL
- Cmax [2, 8]: 4360 ng/mL
- Tmax ([2]; 500 mg, 500 mg b.i.d., Day 1, HCV infected subjects, read-out: tmax Median): 3 h
- AUC(0-t) [2, 9]: 29800 ng·h/mL
- concentration at 12 h [2, 9]: 858 ng/mL
- Cmax [2, 9]: 5040 ng/mL
- Tmax ([2]; 500 mg, 500 mg b.i.d., Day 3, HCV infected subjects, read-out: tmax Median): 2.5 h
- AUC(0-t) [2, 10]: 43600 ng·h/mL
- concentration at 12 h [2, 10]: 1690 ng/mL
- Cmax [2, 10]: 6520 ng/mL
- Tmax ([2]; 750 mg, 750 mg b.i.d., Day 1, HCV infected subjects, read-out: tmax Median): 3 h
- AUC(0-t) [2, 11]: 63000 ng·h/mL
- concentration at 12 h [2, 11]: 1680 ng/mL
- Cmax [2, 11]: 10300 ng/mL
- Tmax ([2]; 750 mg, 750 mg b.i.d., Day 3, HCV infected subjects, read-out: tmax Median): 2 h
- Tmax ([2]; post dose, 250-750 mg BID and 1500 mg QD, FIG. 7, read-out: Tmax): 2 to 6 h
- half-life ([2]; 250 mg b.i.d., Day 3, HCV infected subjects): 4.1 h
- half-life ([2]; 500 mg b.i.d., Day 3, HCV infected subjects): 4 h
- half-life ([2]; 750 mg b.i.d., Day 3, HCV infected subjects): 3.5 h
- mean maximum reduction from baseline, log10 predose HCV plasma RNA on Days 2 to 4 [3]: −3.6784
